Here are results for 21 compounds from patent US10766869B2, “Triazoles for the treatment of demyelinating dieases” (Vertex Pharmaceuticals Incorporated, priority 2015, dated 2020).

Molecules are shown by their SMILES. Read-outs that look alike come from different tables or passages of the source. Some results are limits rather than exact numbers.

In the experiment the test system is primary rat mixed cortical cells. Put plainly: In vitro myelination assay (MBP positive myelin strands, fold myelin pixels above background). In kind it is cell-based. The conditions noted are these: Rattus norvegicus; for fold induction at 1 µM: 1.0 μM compound; for fold induction at 10 µM: 10.0 μM compound. The gist of the method:
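Read-out is total MBP-positive myelin strand pixels per well, detected by custom ridge-tracing software and reported as fold over untreated baseline. Primary P1 rat mixed cortical cells received compound (1.0 or 10.0 μM) for 14 days, with medium half-replaced on days 6 and 10. Standard deviation was taken across all replicates.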

[1] abbreviates: read-out: Fold myelin pixels above background relative to baseline of no added compound.
Where [2] appears, read: relative to baseline of no added compound, read-out: Fold myelin pixels above background.
The mark [3] stands for this setting: relative to baseline of no added compound, read-out: Fold myelin pixels above background, 1.0 μM.
[4] abbreviates: relative to baseline of no added compound, read-out: Fold myelin pixels above background, 10.0 μM.

In the case of `Cc1cc(Nc2ncn(-c3cc(F)cc(F)c3)n2)cc(N2CCC(N3CCCC(O)C3)CC2)c1` (stereo not drawn) [Compound 1054, 1-[1-[3-[[1-(3,5-difluorophenyl)-1,2,4-triazol-3-yl]amino]-5-methyl-phenyl]-4-piperidyl]piperidin-3-ol], under setting [1], the fold induction at 1 µM is not above 1 and the fold induction at 10 µM was not above 1.
As for `Fc1ccc(-n2cnc(Nc3cc(Cl)cc(N4CC(N5CCOCC5)C4)c3)n2)cc1F` [Compound 784, N-[3-chloro-5-(3-morpholinoazetidin-1-yl)phenyl]-1-(3,4-difluorophenyl)-1,2,4-triazol-3-amine], under setting [2], the fold induction at 1 µM is 10 to 100 and the fold induction at 10 µM lay in the range of 10 to 100.
In the case of `Cc1cc(Nc2ncn(-c3cc(F)cc(F)c3)n2)cc(N2CCN(C3CCOC3)CC2)c1` (stereo not drawn) [Compound 137, 1-(3,5-difluorophenyl)-N-[3-methyl-5-(4-tetrahydrofuran-3-ylpiperazin-1-yl)phenyl]-1,2,4-triazol-3-amine], under setting [3], the fold induction at 1 µM was 1000 to 10000. The fold induction at 10 µM under setting [4] lay in the range of 100 to 1000.
The matching figures for `Fc1cc(Nc2ncn(-c3cc(F)cc(F)c3)n2)cc(N2CCN(C3COC3)CC2)c1` [Compound 112, 1-(3,5-difluorophenyl)-N-[3-fluoro-5-[4-(oxetan-3-yl)piperazin-1-yl]phenyl]-1,2,4-triazol-3-amine]: 1000 to 10000 and 100 to 1000.
The matching figures for `CN1CCN(c2cc(Nc3ncn(-c4ccnc(F)c4)n3)cc(C(F)(F)F)c2)CC1` [Compound 226, 1-(2-fluoro-4-pyridyl)-N-[3-(4-methylpiperazin-1-yl)-5-(trifluoromethyl)phenyl]-1,2,4-triazol-3-amine]: 100 to 1000 and not above 1.
On to `Cc1cc(Nc2ncn(-c3ccc(F)c(F)c3)n2)cc(OCC2CCOC2)c1` (stereo not drawn) [Compound 865, 1-(3,4-difluorophenyl)-N-[3-methyl-5-(tetrahydrofuran-3-ylmethoxy)phenyl]-1,2,4-triazol-3-amine], for which, under setting [1], the fold induction at 1 µM lay in the range of 1 to 10 and the fold induction at 10 µM lay within 1 to 10.
Take `COc1c(F)cc(-n2cnc(Nc3cc(C)cc(N4CC(N5CCOCC5)C4)c3)n2)cc1F` [Compound 782, 1-(3,5-difluoro-4-methoxy-phenyl)-N-[3-methyl-5-(3-morpholinoazetidin-1-yl)phenyl]-1,2,4-triazol-3-amine]: under setting [2], the fold induction at 1 µM is 10 to 100 and the fold induction at 10 µM was 1 to 10.
The matching figures for `Cc1cc(Nc2ncn(-c3cc(F)cc(F)c3)n2)cc(N2CCN(C3CC(F)(F)C3)CC2)c1` [Compound 453, N-[3-[4-(3,3-difluorocyclobutyl)piperazin-1-yl]-5-methyl-phenyl]-1-(3,5-difluorophenyl)-1,2,4-triazol-3-amine]: 10 to 100 and 1000 to 10000.
The matching figures for `Cc1cc(Nc2ncn(-c3cc(F)cc(F)c3)n2)cc(N2CCOC2=O)c1` [Compound 517, 3-[3-[[1-(3,5-difluorophenyl)-1,2,4-triazol-3-yl]amino]-5-methyl-phenyl]oxazolidin-2-one]: 10 to 100 and 10 to 100.
The matching figures for `Cc1cc(Nc2ncn(-c3ccccc3)n2)cc(N2C[C@@H](C)N(C)[C@@H](C)C2)c1` [Compound 423, N-[3-methyl-5-[(3R,5S)-3,4,5-trimethylpiperazin-1-yl]phenyl]-1-phenyl-1,2,4-triazol-3-amine]: 100 to 1000 and not above 1.
`Clc1cc(Nc2ncn(-c3cnccn3)n2)cc(N2CC(N3CCOCC3)C2)c1` [Compound 753, N-[3-chloro-5-(3-morpholinoazetidin-1-yl)phenyl]-1-pyrazin-2-yl-1,2,4-triazol-3-amine]: under setting [2], the fold induction at 1 µM lay within 10 to 100 and the fold induction at 10 µM was in the range of 100 to 1000.
In the case of `Cc1cc(Nc2ncn(-c3cc(F)cc(F)c3)n2)cc(N2CCOC(CO)C2)c1` (stereo not drawn) [Compound 1073, [4-[3-[[1-(3,5-difluorophenyl)-1,2,4-triazol-3-yl]amino]-5-methyl-phenyl]morpholin-2-yl]methanol], under setting [1], the fold induction at 1 µM fell in the range of 10 to 100 and the fold induction at 10 µM was not above 1.
For the compound `Cc1cc(Nc2ncn(-c3cccc(F)c3)n2)cc(C2CCN(C3COC3)C2)c1` (stereo not drawn) [Compound 382, 1-(3-fluorophenyl)-N-[3-methyl-5-[1-(oxetan-3-yl)pyrrolidin-3-yl]phenyl]-1,2,4-triazol-3-amine], under setting [3], the fold induction at 1 µM was 1000 to 10000. Besides, the fold induction at 10 µM under setting [4] lay in the range of 1 to 10.
Turning to `Cc1cc(Nc2ncn(-c3ccc(C#N)cc3)n2)cc(N2CCN(C3COC3)CC2)c1` [Compound 687, 4-[3-[3-methyl-5-[4-(oxetan-3-yl)piperazin-1-yl]anilino]-1,2,4-triazol-1-yl]benzonitrile], under setting [2], the fold induction at 1 µM lay in the range of 1 to 10 and the fold induction at 10 µM fell in the range of 1 to 10.
`[2H]C([2H])([2H])C(=O)N1C([2H])([2H])C([2H])([2H])N(c2cc(C)cc(Nc3ncn(-c4cc(F)cc(F)c4)n3)c2)C([2H])([2H])C1([2H])[2H]` [Compound 959, 2,2,2-trideuterio-1-[2,2,3,3,5,5,6,6-octadeuterio-4-[3-[[1-(3,5-difluorophenyl)-1,2,4-triazol-3-yl]amino]-5-methyl-phenyl]piperazin-1-yl]ethanone]: under setting [1], the fold induction at 1 µM was 1 to 10 and the fold induction at 10 µM was not above 1.
Regarding `CC(=O)N1CCC(c2cc(C)cc(Nc3ncn(-c4ccccc4)n3)c2)C1` (stereo not drawn) [Compound 443, 1-[3-[3-methyl-5-[(1-phenyl-1,2,4-triazol-3-yl)amino]phenyl]pyrrolidin-1-yl]ethanone], under setting [2], the fold induction at 1 µM was 1000 to 10000 and the fold induction at 10 µM is not above 1.
The matching figures for `Cc1cc(Nc2ncn(-c3ccccc3)n2)cc(N2CCN(CC(F)(F)F)CC2)c1` [Compound 398, N-[3-methyl-5-[4-(2,2,2-trifluoroethyl)piperazin-1-yl]phenyl]-1-phenyl-1,2,4-triazol-3-amine]: 1000 to 10000 and 100 to 1000.
`Cc1cc(Nc2ncn(-c3cc(F)cc(F)c3)n2)cc(N2CCOC(CN(C)C)C2)c1` (stereo not drawn) [Compound 1018, 1-(3,5-difluorophenyl)-N-[3-[2-[(dimethylamino)methyl]morpholin-4-yl]-5-methyl-phenyl]-1,2,4-triazol-3-amine]: under setting [1], the fold induction at 1 µM lay within 10 to 100 and the fold induction at 10 µM is not above 1.
Take `Fc1cc(F)cc(-n2cnc(Nc3cc(C4CC4)nc(N4CC[C@H](F)C4)c3)n2)c1` [Compound 332, 2-cyclopropyl-N-[1-(3,5-difluorophenyl)-1,2,4-triazol-3-yl]-6-[(3S)-3-fluoropyrrolidin-1-yl]pyridin-4-amine]: the fold induction at 1 µM under setting [3] was in the range of 100 to 1000. Besides, the fold induction at 10 µM under setting [4] is 10 to 100.
The matching figures for `CCOc1nccc(-n2cnc(Nc3cc(C4CC4)cc(N4CCN(C5COC5)CC4)c3)n2)n1` [Compound 286, N-[3-cyclopropyl-5-[4-(oxetan-3-yl)piperazin-1-yl]phenyl]-1-(2-ethoxypyrimidin-4-yl)-1,2,4-triazol-3-amine]: 100 to 1000 and 100 to 1000.
Consider `Cc1cc(Nc2ncn(-c3cc(F)ccc3F)n2)cc(N2CCN(C3(C)COC3)CC2)c1` [Compound 469, 1-(2,5-difluorophenyl)-N-[3-methyl-5-[4-(3-methyloxetan-3-yl)piperazin-1-yl]phenyl]-1,2,4-triazol-3-amine], for which, under setting [2], the fold induction at 1 µM lay in the range of 100 to 1000 and the fold induction at 10 µM lay in the range of 10 to 100.
